In the assay the test system is Plasmodium berghei. In words: Luciferase/luciferin-expressing antifolate-resistant parasites were used to infect a culture of HepG2 cells that were pre-incubated with compounds. Infected hepatocytes emit light due to the luciferase reaction. Assay results are presented as the percent inhibition of light emission compared to control. […]. In kind it is functional. As to conditions: sporozoite; for IC90: read-out: LUCIFERASE INFECTION ASSAY - IC90.

[1] abbreviates: read-out: LUCIFERASE INFECTION ASSAY - IC50.

With `Cc1ccc2cc(Cn3cc(Br)ccc3=O)c(Cl)nc2c1C`, the 90% effect concentration (IC90) worked out at 3.58 µM. Besides, the IC50 (PBLUC_HILL_SLOPE 15.2, PBLUC_R_SQUARED 0.445, read-out: LUCIFERASE INFECTION ASSAY - IC50) was determined as 3.1 µM.
Consider `Cc1cc(C(=O)CSc2nnc(Cn3cnc4ccccc43)n2-c2ccccc2Cl)c(C)n1C`, for which the IC90 was over 10 µM. The half-maximal inhibitory concentration (IC50) under setting [1] is over 10 µM.
As to `CCOc1ccc(CN(C)CC(=O)NCCc2ccc(S(N)(=O)=O)cc2)cc1`, the IC90 is over 10 µM. The IC50 (HEPG2TOX_HILL_SLOPE 0.961, HEPG2TOX_R_SQUARED 0.961, PBLUC_HILL_SLOPE 1.57, PBLUC_R_SQUARED 0.525, read-out: LUCIFERASE INFECTION ASSAY - IC50) was determined as 3.65 µM.
On to `Cc1nnc(N(C)CCCc2n[nH]c(N)c2C#N)c2ccccc12`, for which the IC90 is over 10 µM. The concentration for half-maximal inhibition (IC50) under setting [1] was over 10 µM.
`CCCCCc1ccc(-c2nnc(SCC(C)=O)[nH]2)cc1`: the 90% effect concentration (IC90) was over 10.9 µM. Also, under setting [1], the concentration for half-maximal inhibition (IC50) was over 10.9 µM.
For the molecule `Cn1ccnc1C(=O)NNc1ncc(C(F)(F)F)cc1Cl`, the IC90 was found to be 1.21 µM. Moreover, the 50% inhibitory concentration (IC50) (HEPG2TOX_HILL_SLOPE 1.64, HEPG2TOX_R_SQUARED 0.948, PBLUC_HILL_SLOPE 15.2, PBLUC_R_SQUARED 0.698, read-out: LUCIFERASE INFECTION ASSAY - IC50) is 1.04 µM.
With `O=C(Nc1ccc(OC(F)(F)F)cc1)Nc1cc(-c2ccccc2)n[nH]1`, the IC90 was 4.02 µM. In addition, the IC50 (PBLUC_HILL_SLOPE 11.1, PBLUC_R_SQUARED 0.558, read-out: LUCIFERASE INFECTION ASSAY - IC50) worked out at 3.3 µM.
For the molecule `CCC(C)(C)c1ccc(Oc2ccc(NC(=O)COC(=O)CNC(=O)c3ccc(C)c(C)c3)cc2)cc1`, the 90% effect concentration (IC90) was over 10 µM. Besides, the IC50 (PBLUC_HILL_SLOPE 2.53, PBLUC_R_SQUARED 0.335, read-out: LUCIFERASE INFECTION ASSAY - IC50) turned out to be 6.55 µM.
For the molecule `c1ccc(-c2csc3nc(-c4cccnc4)nc(NCC45CC6CC(CC(C6)C4)C5)c23)cc1`, the IC90 was over 10 µM. Moreover, the IC50 under setting [1] was over 10 µM.
For the molecule `CC(C)c1ccccc1NC(=O)Nc1nc(C(N)Cc2ccc(C(F)(F)F)cc2)cs1` (stereo not drawn), the IC90 is over 7.36 µM. The IC50 (PBLUC_HILL_SLOPE 1.06, PBLUC_R_SQUARED 0.663, read-out: LUCIFERASE INFECTION ASSAY - IC50) was 1.89 µM.
In the case of `CC(c1ccc(-c2ccccc2)c(F)c1)c1nn2c(-c3ccco3)nnc2s1` (stereo not drawn), the 90% effect concentration (IC90) was found to be 2.45 µM. The IC50 under setting [1] worked out at 0.85 µM.
With `CC(=O)N(c1nc(/C=C/C(=O)c2ccc(F)c(F)c2)cs1)c1c(C)cccc1C`, the IC90 is over 10 µM. The half-maximal inhibitory concentration (IC50) under setting [1] was over 10 µM.
With `NC(=O)C1Cc2ccccc2CN1S(=O)(=O)c1cccc2c1N=S=N2` (stereo not drawn), the concentration for an effect of 90% (IC90) was over 10 µM. For the same molecule, under setting [1], the half-maximal inhibitory concentration (IC50) was over 10 µM.
Take `CCOC(=O)c1c(-c2ccc(F)cc2)csc1NC(=O)CSc1nc2c(c(CC)c1C#N)C(=O)CC(C)(C)C2`: the 90% effect concentration (IC90) is over 10 µM. The IC50 (FFLUC_HILL_SLOPE 86.7, FFLUC_R_SQUARED 0.56, PBLUC_HILL_SLOPE 13.6, PBLUC_R_SQUARED 0.125, read-out: LUCIFERASE INFECTION ASSAY - IC50) stood at 8.71 µM.
For the molecule `CSc1ccc(/C=N/OCC(=O)NCCc2ccc(Cl)cc2Cl)cc1`, the IC90 is over 10 µM. The IC50 under setting [1] is over 10 µM.
As to `O=C(Nc1ccc(F)cc1)Nc1cnn(-c2ccc([N+](=O)[O-])cc2)c1C(F)(F)F`, the IC90 was over 8.06 µM. For the same molecule, the concentration for half-maximal inhibition (IC50) under setting [1] amounted to 2.92 µM.
As to `O=C(Cc1noc2ccccc12)N1CCN(c2ccc(C(F)(F)F)cn2)CC1`, the concentration for an effect of 90% (IC90) is over 10 µM. Under setting [1], the half-inhibitory concentration (IC50) is over 10 µM.
As to `Cc1cc(O)cc2c1C(=O)/C(=C/c1ccc(F)cc1)O2`, the IC90 is over 12.2 µM. Also, the IC50 under setting [1] is over 12.2 µM.
For the molecule `Cc1ccc(C2=NN=C/C2=N\Nc2cc(Cl)cc(Cl)c2)cc1`, the 90% effect concentration (IC90) was found to be 3.57 µM. Also, the IC50 (FFLUC_HILL_SLOPE 4.14, FFLUC_R_SQUARED 0.778, HEPG2TOX_HILL_SLOPE 3.13, HEPG2TOX_R_SQUARED 0.962, PBLUC_HILL_SLOPE 34.3, PBLUC_R_SQUARED 0.21, read-out: LUCIFERASE INFECTION ASSAY - IC50) was 3.34 µM.
In the case of `Cc1cc(-c2ccccc2)c(-c2nc3ccccc3[nH]2)[nH]1`, the concentration for an effect of 90% (IC90) amounted to 1.38 µM. For the same molecule, the IC50 (HEPG2TOX_HILL_SLOPE 8.44, HEPG2TOX_R_SQUARED 0.516, PBLUC_HILL_SLOPE 11.1, PBLUC_R_SQUARED 0.785, read-out: LUCIFERASE INFECTION ASSAY - IC50) came out at 1.13 µM.
Turning to `Cc1ccc(O)c(C(=O)c2cnc3cc4c(cc3c2)OCCO4)c1`, the IC90 stood at 0.81 µM. Also, the IC50 (HEPG2TOX_HILL_SLOPE 0.914, HEPG2TOX_R_SQUARED 0.945, PBLUC_HILL_SLOPE 1.42, PBLUC_R_SQUARED 0.804, read-out: LUCIFERASE INFECTION ASSAY - IC50) was 0.172 µM.
Consider `CN(CC(=O)Nc1nc2ccc(Cl)cc2s1)S(=O)(=O)c1ccc(C#N)cc1`, for which the IC90 was 8.36 µM. Further, the IC50 under setting [1] amounted to 5.71 µM.
Consider `CCCCN(C)S(=O)(=O)c1ccc(NC(=O)c2ccc3nccnc3c2)cc1`, for which the IC90 was over 10 µM. The IC50 under setting [1] is over 10 µM.
For the molecule `NS(=O)(=O)c1ccc(CCNCC(=O)N2CCC(Cc3ccccc3)CC2)cc1`, the IC90 is over 10 µM. Further, under “HEPG2TOX_HILL_SLOPE 10, HEPG2TOX_R_SQUARED 0.966, PBLUC_HILL_SLOPE 4.42, PBLUC_R_SQUARED 0.274, read-out: LUCIFERASE INFECTION ASSAY - IC50”, the IC50 is 7.8 µM.
As for `Fc1ccc(Cc2ccc3ncc(-c4ccncc4)n3n2)cc1`, the concentration for an effect of 90% (IC90) worked out at 9.84 µM. Besides, for the setting “HEPG2TOX_HILL_SLOPE 3.58, HEPG2TOX_R_SQUARED 0.787, PBLUC_HILL_SLOPE 13.1, PBLUC_R_SQUARED 0.419, read-out: LUCIFERASE INFECTION ASSAY - IC50”, the IC50 was 8.32 µM.
Consider `CC1(C)CCc2cc(-c3ccnc(S)n3)ccc2O1`, for which the IC90 is over 12.1 µM. The half-maximal inhibitory concentration (IC50) (FFLUC_HILL_SLOPE 9.25, FFLUC_R_SQUARED 0.0162, PBLUC_HILL_SLOPE 0.814, PBLUC_R_SQUARED 0.637, read-out: LUCIFERASE INFECTION ASSAY - IC50) was determined as 1.38 µM.
Consider `CCN(CC)c1ccc(Nc2nc(-c3sc(C)nc3C)cs2)cc1`, for which the IC90 is over 9.2 µM. In addition, the concentration for half-maximal inhibition (IC50) under setting [1] is over 9.2 µM.
As to `CNc1nc2cnc(Nc3cccc(NC(C)=O)c3)cc2n1-c1ccccc1`, the concentration for an effect of 90% (IC90) was over 10 µM. Moreover, the half-inhibitory concentration (IC50) (HEPG2TOX_HILL_SLOPE 1.67, HEPG2TOX_R_SQUARED 0.953, read-out: LUCIFERASE INFECTION ASSAY - IC50) was over 10 µM.
In the case of `Cc1ccc(S(=O)(=O)Oc2ccc(Cl)cc2Sc2cc(Cl)ccc2OS(=O)(=O)c2ccc(C)cc2)cc1`, the concentration for an effect of 90% (IC90) is over 5.54 µM. In addition, the half-inhibitory concentration (IC50) under setting [1] was over 5.54 µM.
Regarding `N#Cc1ccc(-c2cnc3cnc(/C=C/c4ccccc4)cn23)cc1`, the IC90 stood at 1.49 µM. Besides, the IC50 (PBLUC_HILL_SLOPE 4.44, PBLUC_R_SQUARED 0.805, read-out: LUCIFERASE INFECTION ASSAY - IC50) stood at 0.909 µM.
Consider `CSc1[nH]c(=O)c(C(=O)NCCc2c(C)cc(C(C)(C)C)cc2C)cc1C#N`, for which the IC90 turned out to be 7.29 µM. Also, the half-maximal inhibitory concentration (IC50) (PBLUC_HILL_SLOPE 3.23, PBLUC_R_SQUARED 0.351, read-out: LUCIFERASE INFECTION ASSAY - IC50) worked out at 3.69 µM.
As to `FC(F)(F)c1cnc(N/N=C/c2ccccn2)c(Cl)c1`, the IC90 worked out at 4 µM. Moreover, under setting [1], the IC50 amounted to 3.33 µM.
Take `CC(CO)NCCOCCOc1ccc(Cl)cc1Cc1ccccc1` (stereo not drawn): the IC90 is over 10 µM. Moreover, under setting [1], the half-maximal inhibitory concentration (IC50) is over 10 µM.
For the molecule `O=c1[nH]ncc(NCCCc2ccccc2)c1Cl`, the IC90 is over 10 µM. Also, for the setting “HEPG2TOX_HILL_SLOPE 3.21, 1.90, HEPG2TOX_R_SQUARED 0.492, 0.980, PBLUC_HILL_SLOPE 2.78, PBLUC_R_SQUARED 0.0147, read-out: LUCIFERASE INFECTION ASSAY - IC50”, the IC50 stood at 8.32 µM.
For `Cc1c(Sc2ccc(Cl)cc2)c2ccccn2c1C(=O)c1cccs1`, the 90% effect concentration (IC90) is over 10 µM. In addition, under “PBLUC_HILL_SLOPE 3.16, PBLUC_R_SQUARED 0.487, read-out: LUCIFERASE INFECTION ASSAY - IC50”, the IC50 stood at 6.35 µM.
In the case of `O=C(OCc1cnn(-c2ccccc2)c1)c1cc([N+](=O)[O-])ccc1N1CCCC1`, the 90% effect concentration (IC90) is over 10 µM. For the same molecule, the IC50 (HEPG2TOX_HILL_SLOPE 1.67, HEPG2TOX_R_SQUARED 0.935, PBLUC_HILL_SLOPE 0.776, PBLUC_R_SQUARED 0.413, read-out: LUCIFERASE INFECTION ASSAY - IC50) turned out to be 9.4 µM.
Take `O=C(NCCSCc1c(F)cccc1Cl)c1cccs1`: the concentration for an effect of 90% (IC90) was over 10 µM. In addition, the half-maximal inhibitory concentration (IC50) (PBLUC_HILL_SLOPE 2.01, PBLUC_R_SQUARED 0.48, read-out: LUCIFERASE INFECTION ASSAY - IC50) was 3.94 µM.
Take `Cc1c(C(=O)O)sc(S(=O)(=O)N2CCN(C(=O)C(C)(C)C)CC2)c1C(=O)O`: the IC90 is over 10 µM. Under setting [1], the 50% inhibitory concentration (IC50) is over 10 µM.
For the molecule `Cc1ccc(-c2nc(C(=O)N3CCCc4ccccc43)cs2)cc1`, the 90% effect concentration (IC90) is over 10 µM. The IC50 under setting [1] was found to be 2.91 µM.
For the molecule `Cc1ccc2cc(C)c(N/N=C/c3c(C)nn(-c4ccccc4)c3Cl)nc2c1`, the IC90 is 9.17 µM. Further, the 50% inhibitory concentration (IC50) (PBLUC_HILL_SLOPE 2.56, PBLUC_R_SQUARED 0.451, read-out: LUCIFERASE INFECTION ASSAY - IC50) was found to be 3.89 µM.
Turning to `COc1cccc(/C=C2\Oc3cc(O)cc(C)c3C2=O)c1`, the IC90 is over 11.7 µM. Also, the half-maximal inhibitory concentration (IC50) under setting [1] was over 11.7 µM.
As for `CCOc1ccc(-c2nnc(SCC(=O)Nc3ccccc3C(=O)NCc3ccccc3)o2)cc1`, the 90% effect concentration (IC90) was over 10 µM. The IC50 under setting [1] was determined as 4.44 µM.
Turning to `O=S(=O)(c1cc(C(F)(F)F)ccn1)c1cccs1`, the 90% effect concentration (IC90) is over 11.3 µM. Further, under setting [1], the half-maximal inhibitory concentration (IC50) was over 11.3 µM.
In the case of `CN1CCN(S(=O)(=O)c2cc(C(=O)NCc3ccccc3F)cc(-c3ccccc3)c2)CC1`, the IC90 is over 7.06 µM. For the same molecule, the IC50 under setting [1] stood at 6.09 µM.
